The target of series [1] is T1, bovine milk galactosyltransferase (Bos taurus, UniProt P08037).
T1 construct: from tissue; host or cells: bovine milk
T1 sequence (P08037 79-402 limits assumed): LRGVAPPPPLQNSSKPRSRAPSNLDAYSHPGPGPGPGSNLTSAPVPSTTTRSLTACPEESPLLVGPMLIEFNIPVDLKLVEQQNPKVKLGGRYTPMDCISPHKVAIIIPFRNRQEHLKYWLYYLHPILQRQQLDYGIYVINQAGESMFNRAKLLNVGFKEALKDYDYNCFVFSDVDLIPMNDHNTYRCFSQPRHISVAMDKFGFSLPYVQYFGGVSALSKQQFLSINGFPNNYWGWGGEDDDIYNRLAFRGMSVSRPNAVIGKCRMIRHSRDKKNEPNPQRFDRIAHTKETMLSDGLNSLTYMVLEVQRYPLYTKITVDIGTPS
Put plainly: on-blot galactosyltransferase labeling with UDP-[H^3]galactose. Type of series: biochemical. The settings on record: 1 μg protein on PVD membrane, 24 hours at room temperature. From the text: We also investigated whether the O-GlcNAc-serine residue in myoglobin could be selectively modified with a galactosyltransferase. Beta-1,4-galactosyltransferase is known to transfer galactose (Gal) from the sugar nucleotide UDP-Gal to the 4 position of an N-acetylglucosamine (GlcNAc) to form Galβ1,4GlcNAc. To determine if the O-glycosylated myoglobin can be modified with UDP-Gal, both wild-type and O-glycosylated myoglobin were resolved by SDS-PAGE and transferred to a PVD membrane. The membrane was then incubated with bovine milk galactosyltransferase and radioactive UDP-[H^3]-galactose at room temperature for 24 hours. See, e.g., K. Kamemura, et al., (2002), J. Biol. Chem. 277:19229. Incorporation of [H^3]-Gal was monitored by exposing the membrane to X-ray film. […] See FIG. 6, Panel B. FIG. 6, Panel B illustrates on-blot galactosyltransferase labeling glycomyoglobin with UDP-[H^3]galactose. Wild type myoglobin (1 μg) and Gly4→Compound A mutant myoglobin (1 μg) were resolved by 12% SDS-PAGE and transferred to a PVD membrane. The membrane was then treated with bovine milk galactosyltransferase (1 U), UDP-[H^3]galactose (0.5 μCi) and calf intestinal alkaline phosphatase (1 U) for 24 hours at room temperature. […]
(§1) Expression and characterization of mutant myoglobin. […] Proteins were analyzed by 12% SDS-PAGE and silver-stained. […]

Series [2] deals with Bandeiraea simplicifolia II (BSII). In words: ELISA-like assay of binding of a GlcNAc-specific lectin. Conditions: 200 ng immobilized protein, absorbance at 405 nm. How it is done: Several additional experiments were performed to further characterize the mutant myoglobin. First, an ELISA-like assay was used to analyze the binding of a GlcNAc-specific lectin, Bandeiraea simplicifolia II (BSII) (see, e.g., S. Ebisu, et al., (1978), Carbohydr. Res. 61:129), to wild-type myoglobin and glyco-myoglobin. See FIG. 6, Panel A. FIG. 6, Panel A illustrates binding of a GlcNAc-specific lectin, Banderiraea simplicifolia II (BSII), to wild-type myoglobin and glycomyoglobin. A405 values are shown for wild-type myoglobin, glycomyoglobin, and negative control (no lectin added). Gly4→Compound A mutant myoglobin (200 ng) and wild type myoglobin (200 ng) were immobilized in microtiter plate wells and subsequently incubated with biotinylated BSII and streptavidin-alkaline phosphatase conjugate. Wells were incubated with p-nitrophenyl phosphate and monitored by measuring the absorbance at 405 nm. The two forms of myoglobin were immobilized in microtiter plate wells and then incubated with biotinylated BSII, streptavidin-alkaline phosphatase conjugate, and p-nitrophenyl phosphate, respectively.
as §1
(In general: An ELISA detects its analyte on a solid surface through an enzyme-linked reagent.)

Series [3] concerns E. coli DH10B cells. In words: growth rate of cells grown with the unnatural amino acid. Conditions: 1 mM; cells transformed with mutRNACUA^Tyr, LW1RS and Z domain gene (Lys7TAG).
Procedure: E. coli DH10B cells cotransformed with pLEIZ and pBK-LW1RS were grown in minimal media containing 1% glycerol and 0.3 mM leucine (GMML media) with 25 μg/mL kanamycin, 34 μg/mL of chloramphenicol, and 1.0 mM p-acetyl-(±)-phenylalanine.
Cells transformed with the mutRNACUA^Tyr, LW1RS and Z domain gene (Lys7TAG) were grown in the presence of 1 mM p-acetyl-(±)-phenylalanine.

Regarding “wild-type myoglobin: wild-type myoglobin used for comparison”, the “incorporation of [H^3]-Gal (X-ray film)” value in series [1] is reported as “no detectable signal”. Also, the “lectin binding signal (A405)” value in series [2] is given as “signal equivalent to negative control wells”. For `CC(=O)c1ccc(CC(N)C(=O)O)cc1` (racemic) [p-acetyl-(±)-phenylalanine], in series [3], the “effect on growth rate of cells” value is given as “did not affect the growth rate of cells”.

Values taken from patent publication US7825226B2, “Glycoprotein synthesis” (The Scripps Research Institute, priority 2002, dated 2010).
